Measured values reported in patent publication US20050159594A1, “Eplerenone crystal form exhibiting enhanced dissolution rate” (Pharmacia Corporation, priority 1995, published 2005).
In brackets after ≈: the same amount, converted by molar mass.

Experiments:
Format in all cases: physicochemical
[1] = Intrinsic dissolution rate of eplerenone polymorph samples
Description: Intrinsic dissolution rates were measured for the following four eplerenone polymorph samples: (i) Form L eplerenone prepared by direct crystallization from acetonitrile using water as an anti-solvent in the same manner as in Example 11, Procedure B; (ii) Form H eplerenone prepared by digestion in ethanol in the same manner as in Example 10, Procedure A, (iii) a mixture of 5% Form H and 95% Form L; and (iv) Form L eplerenone that was micronized to provide the following particle size distribution: 10% by weight of the particles under 9 μm, 50% by weight of the particles under 22 μm, and 90% by weight of the particles under 41 μm.
Eplerenone in an amount of 150 mg was weighed and placed into a VanKel intrinsic dissolution cavity. The powder was compressed at 8280 kPa using a Carver press to form tablets. The sample was then mounted on the intrinsic dissolution apparatus. The dissolution medium used was 1% sodium dodecyl sulfate (SDS) in HPLC water. All tests were conducted at 37° C. for 2 hours. […] Samples were drawn at determined intervals for the determination of rate of dissolution. […] The samples were analyzed by UV absorbance detection at 243 nm. Intrinsic dissolution rates were calculated from the slope of the linear portion of the concentration versus time profiles corrected for volume and normalized for the surface area of the dissolution tablet (0.5 cm^2).

[2] = Slurry conversion / thermodynamic stability of Form H versus Form L
Description: Approximately 150 mg of Form L eplerenone and 150 mg of Form H eplerenone were added to 5 ml ethyl acetate. The resulting slurry was magnetically stirred at 300 rpm overnight. The next day a sample of the resulting solid was collected by filtration.

[3] = Aqueous solubility of Form L eplerenone; settings: for solubility: phosphate buffer, pH 7, aqueous, pH 7 (100 mM phosphate buffer)
Description: The aqueous solubility of Form L eplerenone was measured at pH 7 (100 mM phosphate buffer) at 5, 25 and 40° C. Approximately 30 mg of Form L eplerenone was mixed with approximately 10 ml of buffer to form a slurry of eplerenone at both 5 and 25° C. Approximately 40 mg of […] eplerenone was mixed with approximately 10 ml of buffer to form a slurry of eplerenone at 40° C. Samples were prepared in duplicate for each condition. The slurries were allowed to equilibrate in water shaker baths at the appropriate temperature and the solutions were analyzed for eplerenone content by ultraviolet visible analysis (245 nm) at time intervals of 1, 5, 12, 19, 27 and 36 days. Data from each temperature were appropriately averaged to determine the solubility of eplerenone at each temperature and are reported in Table 8.

SMILES | Intrinsic dissolution rate, comparison in words ([1]; 1% SDS in HPLC water, 37 °C, 2 hours, compressed tablet 0.5 cm^2) | Dissolution rate relative to Form L eplerenone (faster by) ([1]; aqueous medium, temperatures below the enantiotropic transition temperature) | Solid form after slurry conversion (XRPD) ([2]; 150 mg Form L + 150 mg Form H in 5 ml ethyl acetate, stirred overnight) | Solid form of residual solids after equilibration (DSC, TGA) ([3]; aqueous slurry pH 7, end of the 36 day equilibration) | solubility ([3]; 5 °C) | solubility ([3]; 25 °C) | solubility ([3]; 40 °C) | Thermodynamic stability, comparison of polymorphs ([2]; ambient temperatures)
COC(=O)[C@@H]1CC2=CC(=O)CC[C@]2(C)[C@@]23O[C@@H]2C[C@@]2(C)C(CC[C@@]24CCC(=O)O4)C13 (some centres unmarked) [Form H eplerenone, methyl hydrogen 9,11-epoxy-17-hydroxy-3-oxopregn-4-ene-7,21-dicarboxylate, γ-lactone] | faster intrinsic dissolution rate than Form L eplerenone | approximately 30% | entirely composed of Form L eplerenone | – | – | – | – | –
COC(=O)[C@@H]1CC2=CC(=O)CC[C@]2(C)[C@@]23O[C@@H]2C[C@@]2(C)C(CC[C@@]24CCC(=O)O4)C13 (some centres unmarked) [Form L eplerenone, methyl hydrogen 9,11-epoxy-17-hydroxy-3-oxopregn-4-ene-7,21-dicarboxylate, γ-lactone] | – | – | – | determined to be Form L eplerenone | 240 µg/mL (≈ 579 µM) | 290 µg/mL (≈ 700 µM) | 390 µg/mL (≈ 941 µM) | more thermodynamically stable than Form H at ambient temperatures
